Measured values: BigSolDB 2.1

CC(=O)Nc1ccc(/C=N/NC(N)=S)cc1
solubility (mole fraction)
Settings | 288.15 K | 293.15 K | 298.15 K | 303.15 K | 308.15 K | 313.15 K | 318.15 K
in n-hexane | 5.55e-06 | 7.25e-06 | 1.03e-05 | 1.34e-05 | 1.75e-05 | 2.21e-05 | 2.93e-05
in n-octanol | 0.00038 | 0.000439 | 0.000503 | 0.00058 | 0.000673 | 0.000762 | 0.000863
